Reference: patent publication US20250346866A1, “CELL AGGREGATE DISSOCIATING AGENT” (AJINOMOTO CO., INC., priority 2023, published 2025)

Tests used:
Type in all cases: cell-based
[1] = system: human iPS cells (1383D2 strain), CD30 expression; test: Undifferentiated marker (CD30) positive rate by flow cytometry; conditions: FIG. 7
Method: The undifferentiated rate was evaluated for cells 4 days after suspension culture seeding, according to the following procedure.
1×10^5 cells were quantitatively collected, centrifuged (400 g, 5 min), and the supernatant was removed. 20 μL of PE Mouse Anti-Human CD30 (BD Pharmingen™) or PE Mouse IgG1, κ Isotype Control (BD Pharmingen™) diluted 5-fold with buffer was added and the cells were left standing for 20 min at 4° C. in the dark. After washing several times with buffer, the cells were analyzed using an Attune NXT Flow Cytometer (Thermo Fisher Scientific). […] However, measurement was not performed under conditions without a step of removing EDTA by centrifugation, because cells were not obtained.

[2] = system: human iPS cells (1383D2 strain); test: Suspension culture after passage: proliferation, viable cell density and aggregate formation; conditions: for proliferation in 4 days after passage (viable cell density): seeded 1.5×10^5 cells/mL, 4 days suspension culture, FIG. 6
Method: A new multi-well plate containing AK02N containing 10 μM Y-27632 was prepared, and the cells obtained in (4), (5), and (6) were respectively seeded at a density of 1.5×10^5 cells/mL. The cells were cultured in a CO2 incubator while stirring with an orbital shaker. One and three days after seeding, 50 vol % each of the medium was exchanged with AK02N, and the suspension culture was continued until four days later.
To accurately measure the number of viable cells, after four days of culture, under the same conditions, the following operation, including centrifugation, was performed. The entire volume of each culture medium was collected in a 15-mL conical tube, and the supernatant was removed by centrifugation (200 G, 5 min, 25° C.). Accutase™ (Nacalai Tesque Inc., 12679-54) (0.5 mL) was added and the mixture was heated at 37° C. for 15 min, after which the cell aggregates were sufficiently brought to a single-cell state by pipetting. The cells attached to the wall of the conical tube were sufficiently washed with AK02N, and the supernatant was removed by centrifugation (200 G, 5 min, 25° C.). The cells were resuspended in AK02N containing 10 μM Y-27632, and the viable cell density was measured using Vi-CELL XR.
The viable cell density in the culture medium was calculated from the Vi-CELL measured values in Example 1 (4), (5), and (6). A great difference in the viable cell density was not observed depending on the passage method. The viable cell density in the culture medium was calculated from the Vi-CELL measured values in Example 1 (7). The cells passaged using WK11 proliferated 3.4-fold in 4 days, whereas the cells passaged using EDTA without centrifugation removal proliferated 0.03-fold. Even when the centrifugation step was performed, the value was as low as 0.4-fold.

[3] = system: human iPS cells (1383D2 strain) cell aggregates; test: Dissociation of human iPS cell aggregates by stirring with dissociation agent (micrographs, Vi-CELL viable cell density); conditions: culture medium with 10 μM Y-27632; WK11 stirred 17 min, EDTA 2.5 mM stirred 14 min; FIG. 2, FIG. 3
Method: The iPS cells maintenance cultured in (2) were seeded at a concentration of 1.5×10^5 cells/mL in a multi-well plate with StemFit (registered trademark) AK03N (Ajinomoto Co., Inc.) containing 10 μM Y-27632 added thereto, and cultured with stirring at a rotation speed of 70 rpm using an orbital shaker MaxQ™ 2000 CO2 Plus (Thermo Fisher Scientific) placed in a CO2 incubator at 37° C. One and three days after seeding, 50 vol % each of the medium was exchanged with AK02N, and the culture was continued until four days later to obtain cell aggregates.
To a culture medium containing the cell aggregates prepared in (3) were added Y-27632 (final concentration 10 μM) and WK11 pre-treated in (1), and the mixture was stirred for 17 min using an orbital shaker. Thereafter, the cell aggregates were sufficiently brought to a single-cell state by pipetting, and the viable cell density was measured using a live/dead cell autoanalyzer Vi-CELL XR (BECKMAN COULTER). […]
To a culture medium containing the cell aggregates prepared in (3) were added Y-27632 (final concentration 10 μM) and EDTA (final concentration 2.5 mM), and the mixture was stirred for 14 min using an orbital shaker. […] The viable cell density of the obtained cell suspension was measured using Vi-CELL XR.
The viable cell density in the culture medium was calculated from the Vi-CELL measured values in Example 1 (4), (5), and (6). […]

Q: Which results are given for `O=C(O)CN(CCN(CC(=O)O)CC(=O)O)CC(=O)O` [EDTA, ethylenediaminetetraacetic acid]?
A: undifferentiated marker (CD30) positive rate ([1]; Passage 1, 4 days after suspension culture seeding): maintained high values; undifferentiated marker (CD30) positive rate ([1]; Passage 2, 4 days after suspension culture seeding, EDTA only with centrifugation removal): maintained even after culture; proliferation in 4 days after passage (viable cell density) ([2]; centrifugation step performed to remove the agent): 0.4 fold; proliferation in 4 days after passage (viable cell density) ([2]; no centrifugation removal of the dissociation agent): 0.03 fold; proliferation of passaged cells (micrograph) ([2]; suspension cultured 4 days after passage, FIG. 4): proliferated hardly; aggregate formation of passaged cells (micrograph) ([2]; suspension cultured 4 days after passage, without a step of removing EDTA by centrifugation, FIG. 4): no aggregates were formed; state of cell aggregates after stirring (micrograph) [3]: fragmented and the intercellular binding was weakened
